Data published in patent publication US20160115540A1, “PRODRUGS AND DRUGS” (Biogen MA Inc., priority 2013, published 2016).
Where a name gives a salt, the structure may show the parent alone.

Tested on: kidney
Assay: Transcriptional profiling on Affymetrix GeneChips, single dose, naïve mice: kidney
Type: in vivo, C57BL/6 mice
Conditions: 100 DMF-vs-Veh, 2 h
Description: Treated mice were sacrificed at 2, 7, or 12 hours. Tissues (liver, spleen, kidney, jejunum, cortex, hippocampus, striatum and whole blood) were collected and analyzed by transcriptional profiling on mouse Affymetrix GeneChips.
Tissues (liver, spleen, kidney, jejunum, cortex, hippocampus, striatum and whole blood) were collected and analyzed by transcriptional profiling on mouse Affymetrix GeneChips.
Animals were exposed to CO2 and whole blood collected via cardiac puncture. Two 100 μl aliquots of whole blood were collected in 1.5 mL microcentrifuge tubes and snap frozen in liquid nitrogen. Peripheral (liver, spleen, kidney and jejunum) and CNS brain (cerebellum, hippocampus, striatum and cortex) tissues were harvested and snap frozen in liquid nitrogen, with special care taken to collect tissues of similar size and from the same location. All samples were stored at −80° C. until RNA extraction was conducted.
For RNA preparation, frozen tissues were placed in 2 mL RNAse-free 96-well blocks with 1.5 mL QIAzol Lysis Reagent (QIAgen) and a 3.2 mm stainless steel bead (BioSpec Products, Bartlesville, Okla.). Tissues were disrupted for four cycles of 45 seconds in a Mini-Beadbeater (Biospec Products). RNA was extracted in chloroform and the aqueous phase was mixed with an equal volume of 70% ethanol. Extracted RNA was applied to RNeasy 96 plates and purified by the spin method according to the manufacturer's protocol (RNeasy 96 Universal Tissue Protocol, QIAgen, Hilden Germany).
Automated sample amplifications and biotin labelings were carried out using the NuGEN Ovation RNA Amplification system V2 (Cat #3100), Ovation WB reagent (Cat #1300) and Encore Biotin module (Cat #4200) (NuGEN Technologies, Inc, San Carlos, Calif.) according to manufacturer's recommendations using an Arrayplex automated liquid handler (Beckman Coulter, Indianapolis, Ind.). Two micrograms of biotin labeled sscDNA probe were hybridized to Affymetrix GeneChip Affymetrix HT_MG-430_PM plate arrays with modified conditions as described in Allaire et al. Washing and staining of the hybridized arrays were completed as described in the GeneChip Expression analysis technical manual for HT plate arrays using the Genechip® Array Station (Affymetrix, Santa Clara, Calif.) with modifications as described in Allaire et al. The processed GeneChip® plate arrays were scanned using GeneTitan scanner (Affymetrix, Santa Clara, Calif.).
Affymetrix scans were subject to quality control (QC) measures. These tests included a visual inspection of the distribution of raw signal intensities and an assessment of RNA degradation, relative log expression (RLE), and normalized unsealed standard error (NUSE). All sample scans that passed these QC metrics were included in the analysis.
All CEL files were subjected to GC-content-based Robust Multi-array Average (GCRMA) normalization (version 2.20.0) (Irizarry R A, et al. Nucleic Acids Res 2003; 31:e15; Li C, et al. Genome Biol 2001; 2:[…]0032). Expression levels were log (base 2) transformed.
All calculations and analyses were carried out using R (version 2.11.1) and Bioconductor computational tools (Gentleman R. Springer Science+Business Media 2005).

COC(=O)/C=C/C(=O)OC [DMF, dimethyl fumarate]
FC Kbtbd11 1431254_PM_at: −1.77 | FC Kbtbd11 1435465_PM_at: −1.50 | FC Kdm6b 1440346_PM_at: 1.52 | FC LOC100502834 1441010_PM_at: −1.53 | FC LOC100503447 1443908_PM_at: −1.72 | FC Lipg 1421262_PM_at: 2.42 | FC Lipg 1450188_PM_s_at: 1.94 | FC Lonrf3 1429863_PM_at: 4.13 | FC Lonrf3 1436200_PM_at: 3.86 | FC Maff 1418936_PM_at: 2.83 | FC Mdm2 1423605_PM_a_at: 1.51 | FC Mdm2 1427718_PM_a_at: 1.66 | FC Med13 1438725_PM_at: 2.02 | FC Mfsd2a 1428223_PM_at: −2.59 | FC Mir17hg 1428694_PM_at: 2.82 | FC Mpp6 1441546_PM_at: 1.62 | FC Mt1 1451612_PM_at: 2.79 | FC Mtch2 1438842_PM_at: 1.67 | FC Mthfd2 1419253_PM_at: 2.06 | FC Mthfd2 1419254_PM_at: 1.54 | FC Mylip 1424988_PM_at: −1.70 | FC Naa16 1429056_PM_at: 1.71 | FC Napsa 1430744_PM_at: −4.53 | FC Nat2 1449981_PM_a_at: −2.01 | FC Nlrp6 1427369_PM_at: −1.52 | FC Ntn4 1450512_PM_at: −1.67 | FC Nufip2 1435632_PM_at: 1.57 | FC Osgin1 (1424022_PM_at): 4.63 | FC Ovol1 1419051_PM_at: −1.60 | FC P4ha1 1452094_PM_at: 1.56 | FC Paip1 1441955_PM_s_at: 1.61 | FC Pank1 1429813_PM_at: −1.59 | FC Pgd 1423706_PM_a_at: 1.61 | FC Pgd 1438627_PM_x_at: 1.50 | FC Pgd (1436771_PM_x_at): 1.52 | FC Pgd (1437380_PM_x_at): 1.53 | FC Phf23 1428997_PM_at: 1.72 | FC Phip 1438535_PM_at: 1.50 | FC Plekhf2 1423862_PM_at: 1.54 | FC Plk3 1434496_PM_at: 3.14 | FC Polr3e 1429456_PM_a_at: −1.69 | FC Ppm1k 1441988_PM_at: −1.62 | FC Ppp1r15b 1436366_PM_at: 1.72 | FC Pppde1 1425185_PM_at: 1.94 | FC Pppde1 1451621_PM_at: 1.65 | FC Pprc1 1426381_PM_at: 1.74 | FC Prkar2b 1438664_PM_at: 2.43 | FC Prr5 1451463_PM_at: 1.65 | FC Psme4 1443116_PM_at: 1.56 | FC Rg9mtd2 1435035_PM_at: 1.82 | FC Rhebl1 1447818_PM_x_at: −1.57 | FC Rhebl1 1451516_PM_at: −2.01 | FC Riok2 1423481_PM_at: 1.62 | FC Rwdd2a 1428963_PM_at: 2.54 | FC Siah2 1448170_PM_at: 1.71 | FC Slc1a4 1423549_PM_at: 1.52 | FC Slc7a13 1431740_PM_at: −2.60 | FC Slc20a1 1448568_PM_a_at: 2.07 | FC Slc36a2 1436521_PM_at: 4.63 | FC Slc38a2 1426722_PM_at: 2.05 | FC Slc40a1 1448566_PM_at: 1.71 | FC Snhg1 1433674_PM_a_at: 1.62 | FC Snhg1 1433675_PM_at: 1.69 | FC Snx16 1438803_PM_s_at: 1.60 | FC Spry4 1440867_PM_at: 1.71 | FC Spry4 1445669_PM_at: 1.54 | FC Sqstm1 1450957_PM_a_at: 1.69 | FC Srsf7 1436871_PM_at: 1.57 | FC Srxn1 (1419942_PM_at): 1.62 | FC Srxn1 (1426875_PM_s_at): 1.59 | FC Susd3 1428975_PM_at: −1.51 | FC Syn3 1435311_PM_s_at: −1.73 | FC Taf15 1438130_PM_at: 1.59 | FC Them4 1431140_PM_at: 1.80 | FC Tmco6 1451692_PM_at: −1.57 | FC Tmem26 1435409_PM_at: −1.85 | FC Tmem26 (1434583_PM_at): −1.66
